Assay results as given in patent US9783550B2, “Highly potent inhibitors of porcupine” (The Board of Regents of the University of Texas System, priority 2013, dated 2017).
“Also recorded” adds a separate entry of the source.

Assays:
[1] = system: regeneration of the tailfin (Wnt-dependent process); details: adult and juvenile fish, previously shown; cited from earlier work
[2] = system: cell-autonomous Wnt signaling in mouse fibroblasts (L cells); assay: Wnt signaling / Porcn-inhibiting activity, EC50 in mouse fibroblasts (L cells); format: cell-based
From the text: The four IWP lead compounds (1-4) were identified in the initial screen of 200,000 compounds (ChemDiv, ChemBridge, ComGenex, Prestwick and TimTek libraries) bear similar molecular skeletons (FIG. 1). […] The phthalazinone moiety of IWP-1 (1) and pyrimidinone moiety of IWP-2-4 (2-4) can be considered to be exchangeable scaffolding motifs for the compounds. The benzothiazole moiety appears to be a conserved motif and the phenyl group tolerates both electronic and steric perturbations.
While there is only 69% sequence identity between mouse Porcn and zebrafish Porcn, the in vitro EC50 values (FIG. 3) measured in mouse fibroblasts (L cells) correlate with the in vivo activity observed in fish but not linearly.

Relative solubility = format: physicochemical
[3] = system: phosphorylation of dishevelled 2 (Dv12) in HEK293 cells; assay: Phosphorylation of dishevelled 2 in HEK293 cells (gel electrophoresis); format: cell-based
From the text: FIG. 4—The Porcn inhibitor, IWP-L6 (FIG. 3 Compound 27), blocks the phosphorylation of the cytoplasmic Wnt pathway effector Dv12 shown through gel electrophoresis.
Among the five newly identified sub-nanomolar IWPs, compound 27 was selected for further biological evaluations and named IWP-L6. […] The in vivo stability of IWP-L6 (27) (FIG. 5) was further profiled. […] The major metabolites are the amide cleavage products. Similar species-dependent metabolitic profiles due to the involvement of carboxylesterase (CES) have been reported with other drug candidates (Eng, et al., 2010; Liu, et al., 2011) These observations are consistent with the elevated activity of CES in mouse and rat but not human (Berry, et al., 2009; Rudakova, et al., 2011; Bahar, et al., 2012).

[4] = Plasma metabolism assay, human plasma; format: in vitro ADME; details: over 24 h; 2 μM, 37° C.
Procedure: (§1) Plasma Metabolism Assay: Murine, rat, and human plasma, collected using acidified citrate dextrose (ACD) anticoagulant, were purchased from Bioreclamation (Westbury, N.Y.). IWP-L6 (27) was added to 1 mL of each plasma at a final concentration of 2 μM, the material was aliquoted into eppendorf tubes, and then incubated for the indicated time points in a 37° C. water bath. At each time point, an aliquot was removed and protein precipitated and compound extracted and analyzed as described above.

[5] = Plasma metabolism assay, rat plasma; format: in vitro ADME
Procedure: as §1

[6] = Plasma metabolism assay, murine plasma; format: in vitro ADME, mouse
Procedure: as §1

[7] = S9 metabolism assay, murine liver S9 fractions; format: in vitro ADME, mouse; details: 2 μM, 37° C., NADPH-regenerating system
Procedure: S9 Metabolism Assay: Male ICR/CD-1 mouse S9 fractions were purchased from Celsis/In Vitro Technologies (Baltimore, Md.). 50 μL (1 mg) of S9 protein was added to a 15 mL glass screw cap tube. 700 μL of a 50 mM Tris, pH 7.5 solution, containing the compound of interest was added on ice. The final concentration of compound after addition of all reagents was 2 μM. 250 μL of an NADPH-regenerating system (1.7 mg/mL NADP, 7.8 mg/mL glucose-6-phosphate, 6 U/mL glucose-6-phosphate dehydrogenase in 2% w/v NaHCO3/10 mM MgCl2) was added and the tube placed in a 37° C. shaking water bath. At varying time points after addition of phase I cofactors, the reaction was stopped by the addition of 1 mL of methanol containing an internal standard compound, n-benzylbenzamide, and formic acid. The samples were incubated 10 min at room temperature and then spun once at 975×g in the glass tube. The supernatant was spun a second time at 16,000×g for 5 min in a microcentrifuge. The supernatant was analyzed by LC-MS/MS. Analytical methods were developed for each compound using an AB SCIEX 3200-QTrap, a combination triple quadrupole/ion trap instrument. Compound transitions utilized for quantitation were as follows: IWP-L6 (27): 473.2 to 303.1; aniline: 171.2 to 127.0; n-benzylbenzamide (internal standard): 212.1 to 91.1. […]

[8] = system: regeneration of the tailfin (Wnt-dependent process); assay: Zebrafish tailfin regeneration; format: in vivo
From the text: Achieving transient repression of pathological Wnt response without incurring permanent damage to normal stem cell function is a key anticancer therapeutic goal.

[9] = system: posterior axis formation (Wnt/β-catenin dependent developmental process); assay: Zebrafish posterior axis formation assay; format: in vivo; details: zebrafish embryos, low micromolar concentrations, FIG. 7
Procedure: Zebrafish embryos harboring a mCherry-based reporter of Wnt/β-catenin signaling (Moro, et al., 2012) were treated with increasing concentrations of IWP-L6 (FIG. 3 Compound 27) in the aquarium water. Fluorescence intensity of animals was quantified as before (Dodge et al., 2012). (FIG. 7B) Activity of the IWP compounds IWP-L6 (Compound 27), 30, 32, and 35 was measured using the posterior axis formation assay.

[10] = system: Wnt mediated branching morphogenesis in cultured embryonic kidneys; assay: Branching morphogenesis in cultured mouse embryonic kidneys; format: cell-based
Procedure: FIGS. 8A-B—(FIG. 8A) IWP-L6 (Compound 27) inhibits Wnt mediated branching morphogenesis in cultured embryonic kidneys. Hoxb7Cre; RosaTomato kidneys were dissected from E11.5 embryos and cultured at the air/media interface (Dodge, et al., 2012; Kamer, et al., 2010) Media was replaced every 24 hours. Images were captured every 24 hours using a Zeiss Lumar V12 fluorescent stereoscope. Magnitude: 80× at 0 hours and 24 hours; 60× at 48 hours. (FIG. 8B) The fold increase in the number of ureteric bud tips between time=0 and 48 hours for each treatment was quantified. Statistics were performed using Student T-test.
IWP2 (2) has been previously shown to specifically and reversibly block Wnt signaling and Wnt mediated branching morphogenesis in cultured mouse embryonic kidneys (Kamer, et al., 2010; Dodge, et al., 2012, which are incorporated by reference herein). […] Embryonic day (E) 11.5 kidneys in media containing various doses (1 nM to 1 μM) of IWP-L6 (27) were cultured. […] In comparison, a dose of 5 μM of IWP-2 (2) was required to obtain similar results (Dodge, et al., 2012; Karner, et al., 2010).

[11] = system: Wnt mediated branching morphogenesis in cultured embryonic kidneys; details: cultured mouse embryonic kidneys; cited from earlier work

For Cc1ccc2nc(NC(=O)CSc3nc4c(c(=O)n3C)SC(C)C4)sc2c1 (centres unmarked) [IWP-12], the “block of tailfin regeneration” value [1] is given as “effectively block”.
In the case of O=C(CSc1nc2c(c(=O)n1-c1ccccc1)SCC2)Nc1ccc(-c2ccccc2)cn1 [IWP-L6], the “EC50 (in words)” value [2] is reported as “sub-nanomolar”, the “Porcn-inhibiting activity (in words)” value ([2]; general structure C, FIG. 3 series) is reported as “slight improvement of activity” and the “solubility relative to IWP-2 (2) and 20” value (Relative solubility) is reported as “more soluble”. The “suppression of phosphorylation of dishevelled 2 (Dv12)” value [3] was “effectively suppressed; also recorded: blocks”, the “stability in human plasma” value [4] was “stable; also recorded: little degradation” and the “t1/2 in rat plasma” value ([5]; 2 μM, 37° C.) was 190 min. The “degradation in rat plasma (in words)” value ([5]; as a function of time, FIG. 5) was “much more significant degradation”, the “t1/2 in murine plasma” value ([6]; 2 μM, 37° C.) was 2 min and the “degradation in mouse plasma (in words)” value ([6]; as a function of time, FIG. 5) was “much more significant degradation”. The “t1/2 in murine liver S9 fractions” value [7] was 26 min, the “fin regeneration after chemical removal” value ([8]; resected caudal fins, 7 d in water containing compound, then removal) was “nearly normal levels” and the “inhibition of tailfin regeneration (comparison in words)” value ([8]; zebrafish, FIG. 6) was “more potent activity; also recorded: more significant”. For the same compound, the “inhibition of posterior axis formation” value [9] was “effectively inhibit; also recorded: inhibits”, the “dose that completely blocked branching morphogenesis” value ([10]; E11.5 kidneys) was at least 50 nM and the “dose that significantly reduced branching morphogenesis” value ([10]; E11.5 kidneys, relative to DMSO treated controls) was at least 10 nM. The “inhibition of Wnt mediated branching morphogenesis (in words)” value ([10]; FIG. 8A) was “inhibits” and the “potency relative to IWP-2 (2)” value ([10]; cultured E11.5 mouse kidneys) was “at least 100 times”.
In the case of O=C(Nc1cccc2cccnc12)c1ccc(N2C(=O)[C@@H]3[C@H](C2=O)[C@@H]2C=C[C@H]3C2)cc1 [IWR-1], the “block of tailfin regeneration” value [1] is listed as “effectively block”.
In the case of Cc1ccc2nc(NC(=O)CSc3nc4c(c(=O)n3-c3ccccc3)SCC4)sc2c1 [IWP-2], the “dose required to obtain similar results (block of branching morphogenesis)” value [11] is given as 5 µM.
